Data on 26 substances can be found in publication PMC10955071, “AGRAMP: machine learning models for predicting antimicrobial peptides against phytopathogenic bacteria” (Frontiers in Microbiology, 2024).

The test system of assay [1] is Spiroplasma citri. Conditions: cited from earlier work; for MIC: spiroplasma MIC from literature; for MIC concentration: S. citri, ref Béven et al. (1997). The source says:
Table 7 Aggregation values of AMPs, predicted AMPs, and predicted NOAMPs. | column: MIC; Lab assay || Figure 6 Charge density analysis of predicted antimicrobial peptides (AMPs) tested in minimum inhibitory concentration (MIC) assays. […] The secondary structure of each AMP is indicated at the bottom of the respective graph. […] Intriguingly, the LK peptides had higher aggregation propensities (in the high 40s and 50s), while the peptides in the 1997 study had slightly positive (5.7, 1.3) and negative (−1.3) aggregation scores when input into AGGRESCAN. The positive control, Mel ...

For assay [2], the system named is Spiroplasma citri strain R8A2. Conditions: for activity against Spiroplasma citri in MIC assay (Positive/Negative, figure heading): Figures 5 and 6, positive = high activity, negative = no activity in MIC assay; for MIC: S. citri R8A2, LD8A3 medium + fetal bovine serum, phenol red, OD560, 48 h, triplicate, Resistant = ineffective.
Where [3] appears, read: ref Bevin2002 (Béven et al., 2003).
[4] abbreviates: ref Bevin1997 (Béven et al., 1997).

Like-named read-outs stand apart in the source and are kept apart here. Ends that are not written are not given here.

As to “KLLKLLLKLLLKLLK [LK15_3.6, LK peptide (leucine/lysine copolymer) from Béven et al., 2003]”, in assay [1] (setting [3]), the MIC (commonly the smallest concentration in the dilution series that meets the test's criterion for growth inhibition) is 6.25 µM. In the case of “KLLKLLLKLLLKLWK [LK15_W14_3.6, LK peptide (leucine/lysine copolymer) from Béven et al., 2003]”, the MIC in assay [1] (setting [3]) was 6.25 µM. With MAQSKRYKARLVAKRIHAVKKY [G221], in assay [2], the “activity against Spiroplasma citri in MIC assay (Positive/Negative, figure heading)” value is given as “Negative” and the minimum inhibitory concentration (MIC) result is recorded as “Resistant”. As for MARKAISKVIVGTRRKKKK [G66], in assay [2], the MIC entry was “Resistant”. As for MCRRKGGLIGRAPPCRGRLAC [G9994], in assay [2], the MIC entry is given as “Resistant”. On the same count and under the same terms, the value for MERRRLAAKLANKLVRIGWIG [I5196] was “Resistant”. Turning to MFLLRRILKKLRTIFIQ [I3435], the MIC in assay [2] was determined as 50 µg/mL. For the same substance, the “SpiroC MIC (48hrs)” value in assay [2] (Set1, tested at 50, 25, 12.5 μg/mL, OD560, triplicate) is on record as 50 µg/mL. Take MGFLLKTLSHIRRVIRLII [G389]: the “MIC (48hrs) Resistant (R)” value in assay [2] turned out to be 50 µg/mL. As for “MGLGLHLLLAAALQGAKKKRKV [P2, synthetic peptide from Béven et al., 1997]”, the MIC concentration in assay [1] was 100 µM. The MIC in assay [1] (setting [4]) was 100 µM.

On to “MGLGLHLLVLAAALQGAKKKRKV [P3, synthetic peptide from Béven et al., 1997]”, for which the MIC concentration in assay [1] is 100 µM. Besides, in assay [1] (setting [4]), the MIC was 100 µM. Consider “MGLGLHLLVLAAALQGAWSQPKKKRKV [P1, synthetic peptide from Béven et al., 1997]”, for which the MIC concentration in assay [1] is 100 µM. For the same substance, in assay [1] (setting [4]), the MIC is 100 µM. MIDNKIGLVVKWLRSK [I3775]: in assay [2], the MIC result is recorded as “Resistant”.

Regarding MILKRVFRMKNKKASV [G10159], the MIC entry in assay [2] is reported as “Resistant”. Turning to MILRLPHLINCTTTGLISKITSYLG [I4992], in assay [2], the “activity against Spiroplasma citri in MIC assay (Positive/Negative, figure heading)” value is listed as “Negative” and the MIC result is “Resistant”. With MILSVLKIFGVFRKRSRGN [I3440], the “SpiroC MIC (48hrs)” value in assay [2] turned out to be 25 µg/mL. As for MITGRQKALKFIKKKVGGIQ [G196], in assay [2], the MIC entry is listed as “Resistant”. MIVRIAIRRFLKGKRQIVKI [G33]: the “MIC (48hrs) Resistant (R)” value in assay [2] was 25 µg/mL. Consider MKSIKIKIKRLNSKNKKILILIFI [I970], for which, in assay [2], the “SpiroC MIC (48hrs)” value amounted to 25 µg/mL. Take MLIMRKIKKKKRKNRHI [G54]: in assay [2], the MIC result is reported as “Resistant”.

On to MLKCHLVGFVRRLIN [I2572], for which the “SpiroC MIC (48hrs)” value in assay [2] is given as 25 µg/mL. As to MLLQRLIFKPIRIIWHT [I3441], the “SpiroC MIC (48hrs)” value in assay [2] is reported as 25 µg/mL. On to MLNLKLIRLLRHRFAI [G15], for which the “MIC (48hrs) Resistant (R)” value in assay [2] was 50 µg/mL. Consider MMKKVIKLQKMIALGKIVKRFSLY [I4455], for which the “SpiroC MIC (48hrs)” value in assay [2] is reported as 12.5 µg/mL. For the substance MSRKLRKGKRQLKSPRFGKIVI [I2769], the MIC entry in assay [2] is listed as “Resistant”. As to MVSHLFCFKFIRNLRFKKIR [G19], the “MIC (48hrs) Resistant (R)” value in assay [2] is given as 50 µg/mL. Turning to “Mellitin: positive control peptide in Béven et al., 1997”, the MIC in assay [1] (setting [4]) is 0.39 to .78 µM.
